What all share (assay type): cell-based
One assay concerns pERK T202/Y204. Briefly: Western Blot of TMD-8 Ibrutinib resistant lines. The note with it: idelalisib 420 nM, Compound B 320 nM. The method, then:
Western Blot samples were prepared by lysing 10^6 cells for 30 minutes in 150 μL ice-cold lysis buffer. Protease Inhibitor Cocktail (Roche Diagnostics Corp), and phosphatase inhibitor sets 1 and 2 (EMD Millipore) were also added to the lysis buffer (Cell Signaling Technology). Cells were centrifuged at 12.5 g for 10 minutes at 4° C.; supernatant was collected and transferred to new tube. Sample buffer was added to each lysate, and then boiled at 99° C. for 5 minutes. Protein was loaded into an SDS-PAGE gel and run for 2 h at 125V. After electrophoresis, gel was transferred to Immobilon-F membrane using the X Cell Blot. The membrane was then blocked for 1 h at room temperature in blocking buffer and incubated overnight with primary antibodies diluted in a blocking buffer. The following day, the membranes were washed 3× (5 min each) with TBST; secondary antibodies were added and membrane was incubated for 45 minutes at room temperature, followed by 3×TBST (5 min each). Blots were read using Licor Imager. Primary antibodies included p-AKT (S473), p-BTK (Y223), BTK, p-ERK (T202/Y204), ERK, and actin (Cell Signaling Technologies), and secondary antibodies included IRDye-conjugated anti-mouse and anti-rabbit antibodies; LI-COR. Band intensity was measured using LI-COR imager and LI-COR Odyssey software.
(§1) Total protein expression levels and phosphorylation of PI3K, MAPK, BTK and NF-κB components were determined by Western Blot or Peggy Sue. Cells were treated with idelalisib (420 nM), Compound B (320 nM) or in combination. Protein expression level and phosphoproteomics were determined using Western Blot (p-ERK 1/2, p-AKT S473, total AKT) and Peggy Sue (p-BTK, p-IκBα S32, total IκBα), using procedures as described in Example 3B. Results were quantitated after determining the AUC for each group and normalized to DMSO vehicle control.
On the technique in general: A western blot detects proteins with antibodies after separation by electrophoresis.

The next assay concerns OCI-Ly4 cells. Description: ATPLite anti-proliferation assay (GI) and synergy score, 120 h. The method, then:
(§2) The endpoint readout of the anti-proliferation assay was based upon quantitation of ATP as an indicator of viable cells. Cells were thawed from a liquid nitrogen preserved state. Once cells had been expanded and divided at their expected doubling times, screening began. Cells were seeded in growth media in black 384-well tissue culture treated plates at 500 cells per well (except where noted in Analyzer). Cells were equilibrated in assay plates via centrifugation and placed in incubators attached to the Dosing Modules at 37° C. for twenty-four hours before treatment. […] These Tzero (T0) plates were read using ultra-sensitive luminescence on Envision Plate Readers. Treated assay plates were incubated with the compound for one hundred twenty hours. After one hundred twenty hours, plates were developed for endpoint analysis using ATPLite. All data points were collected via automated processes; quality controlled; and analyzed using Horizon CombinatoRx proprietary software. Assay plates were accepted if they pass the following quality control standards: relative luciferase values were consistent throughout the entire experiment, Z-factor scores were greater than 0.6, untreated/vehicle controls behaved consistently on the plate.
(§3) Horizon Discovery utilized Growth Inhibition (GI) as a measure of cell viability. The cell viability of vehicle was measured at the time of dosing (T0) and after one hundred twenty hours (T120). A GI reading of 0% represented no growth inhibition—cells treated with compound and T120 vehicle signals were matched. […] A GI 200% represents complete death of all cells in the culture well. Compounds reaching an activity plateau of GI 200% were considered cytotoxic. Horizon CombinatoRx calculates GI by applying the following test and equation: […]
(§4) To measure combination effects in excess of Loewe additivity, Horizon Discovery has devised a scalar measure to characterize the strength of synergistic interaction termed the Synergy Score. The Synergy Score was calculated as:
(§5) Synergy Score=log fx log fyΣmax(0,Idata)(Idata−ILoewe)
(§6) The fractional inhibition for each component agent and combination point in the matrix was calculated relative to the median of all vehicle-treated control wells. The Synergy Score equation integrated the experimentally-observed activity volume at each point in the matrix in excess of a model surface numerically derived from the activity of the component agents using the Loewe model for additivity. Additional terms in the Synergy Score equation (above) were used to normalize for various dilution factors used for individual agents and to allow for comparison of synergy scores across an entire experiment. The inclusion of positive inhibition gating or an Idata multiplier removed noise near the zero effect level, and biased results for synergistic interactions at that occur at high activity levels.
(§7) The cell viability of vehicle was measured at the time of dosing (T0) and after 120 h (T120). […] To measure combination effects, excess of Loewe additivity was used to characterize the strength of synergistic interaction, termed the synergy score. The assay and synergy score analysis were performed in accordance with the protocol set forth in Example 1B above.
(§8) The assay and synergy score analysis were performed in accordance with the protocol set forth in Example 3A above.
On the technique in general: Cellular ATP, detected with luciferase, serves as a proxy for viable cell number.

The next assay has as its system TMD-8 cells. The description is as above. The method, then:
as §2, §3, §4, §5, §6, §7, §8

A further assay relates to Pfeiffer cells. The description is as above. How it is done:
as §2, §3, §4, §5, §6, §7, §8

In the next assay the test system is SU-DHL-2 cells. The description is as above. How it is done: as §2, §3, §4, §5, §6, §7, §8
In a further assay the test system is Carnaval cells. The assay is described as above. The method, then: as §2, §3, §4, §5, §6, §7, §8
For a further assay, the system named is pIκBa S32. Description: Peggy Sue analysis of TMD-8 Ibrutinib resistant lines. As to conditions: idelalisib 420 nM, Compound B 320 nM. The method, then: Lysates were also analyzed by Simple Western using Peggy Sue (ProteinSimple). A standard curve using recombinant proteins was generated to measure PI3K isoform levels on Peggy Sue; data was processed using Compass software (ProteinSimple).
as §1

For the next assay, the system named is Mino cells. Briefly: ATPLite anti-proliferation assay (GI) and synergy score, 120 h. The method, then: as §2, §3, §4, §5, §6, §7
Another assay concerns JVM-2 cells. The description is as above. How it is done:
as §2, §3, §4, §5, §6, §7

The subject of the next assay is JVM-13 cells. The assay is described as above. The method, then:
as §2, §3, §4, §5, §6, §7

The next assay deals with Rec-1 cells. The assay is described as above. The method, then:
as §2, §3, §4, §5, §6, §7

The next assay has as its system PF-1 cells. Described as above. The method, then:
as §2, §3, §4, §5, §6, §7

The next assay deals with Maver-1 cells. The description is as above. The method, then: as §2, §3, §4, §5, §6, §7
The subject of a further assay is PF-2 cells. Described as above. The method, then: as §2, §3, §4, §5, §6, §7
A further assay has as its system JMP-1 cells. Described as above. The method, then:
as §2, §3, §4, §5, §6, §7

A further assay concerns Z-138 cells. The assay is described as above. How it is done:
as §2, §3, §4, §5, §6, §7

The next assay has as its system Jeko-1 cells. Described as above. The method, then:
as §2, §3, §4, §5, §6, §7

The next assay relates to Granta-519 cells. The assay is described as above. How it is done:
as §2, §3, §4, §5, §6, §7

Where [1] appears, read: A20-Q143* line, normalized to DMSO control, DMSO 0.91.
[2] abbreviates: control line, normalized to DMSO vehicle control.
[3] abbreviates: A20-Q143* line, normalized to DMSO control, DMSO 1.39.

Molecules are shown by their SMILES.

As to `CC#CC(=O)N1CC[C@@H](n2c(=O)n(-c3ccc(Oc4ccccc4)cc3)c3c(N)ncnc32)C1` [Compound B, 6-amino-9-[(3R)-1-(2-butynoyl)-3-pyrrolidinyl]-7-(4-phenoxyphenyl)-7,9-dihydro-8H-purin-8-one], the “pERK T202/Y204” value was 0.76 in the assay on pERK T202/Y204 (setting [1]) and 0.35 with pERK T202/Y204 (setting [2]). The “Max. Effect (% GI)” value in the assay with OCI-Ly4 cells is 25 % GI; in the assay with TMD-8 cells it was 98 % GI; in the assay with Pfeiffer cells it was 8 % GI; in the assay with SU-DHL-2 cells it was 18 % GI; in the assay with Carnaval cells it was 0 % GI; in the assay with Mino cells, 35 % GI. For the same molecule, the “Max. Effect (% GI)” value in the assay with JVM-2 cells is given as 91 % GI; in the assay on JVM-13 cells, 15 % GI; in the assay on Rec-1 cells, 111 % GI; in the assay on PF-1 cells, 9 % GI; with Maver-1 cells, 45 % GI; in the assay with PF-2 cells, 25 % GI. Also, the “Max. Effect (% GI)” value was determined as 14 % GI with JMP-1 cells, 11 % GI with Z-138 cells, 37 % GI in the assay on Jeko-1 cells and 22 % GI in the assay with Granta-519 cells. Moreover, the figures for the “pIκBa S32” value with pIκBa S32 (setting [3]) and in the assay with pIκBa S32 (setting [2]) were 1.12 and 0.62, respectively.

On to `CCC(Nc1ncnc2[nH]cnc12)c1nc2cccc(F)c2c(=O)n1-c1ccccc1` (stereo not shown) [Idelalisib, 2-(1-((9H-Purin-6-yl)amino)propyl)-5-fluoro-3-phenylquinazolin-4(3H)-one], for which the results for the “pERK T202/Y204” value in the assay on pERK T202/Y204 (setting [1]) and in the assay on pERK T202/Y204 (setting [2]) were 0.73 and 0.13, respectively. The “Max. Effect (% GI)” value in the assay on OCI-Ly4 cells was determined as 194 % GI; in the assay with TMD-8 cells it was 155 % GI; in the assay with Pfeiffer cells, 33 % GI; in the assay with SU-DHL-2 cells, 8 % GI; in the assay with Carnaval cells it was 62 % GI; in the assay with Mino cells, 34 % GI. In addition, the “Max. Effect (% GI)” value is on record as 146 % GI in the assay with JVM-2 cells; 92 % GI with JVM-13 cells; 163 % GI in the assay with Rec-1 cells; 29 % GI in the assay with PF-1 cells; 48 % GI in the assay on Maver-1 cells; 113 % GI in the assay with PF-2 cells. The “Max. Effect (% GI)” value is 69 % GI in the assay with JMP-1 cells, 11 % GI in the assay on Z-138 cells, 73 % GI in the assay on Jeko-1 cells and 72 % GI in the assay on Granta-519 cells. The results for the “pIκBa S32” value with pIκBa S32 (setting [3]) and in the assay on pIκBa S32 (setting [2]) were 0.92 and 1.09, respectively.

The record behind these values is US20180353512A1, “COMBINATION THERAPIES FOR TREATING B-CELL MALIGNANCIES” (GILEAD SCIENCES, INC., priority 2015, published 2018).
